Literature values as cited in patent publication US10296863B2, “Wireless sensor devices for post-harvest crop quality and pest management” (priority 2017, dated 2019).
Read-outs that look alike come from different tables or passages of the source.

How the values were obtained:
[1] = test system: resistant cigarette beetle
[2] = test system: tobacco moth and susceptible cigarette beetle
[3] = tobacco temperature 16-20 °C (61-68 °F), 300 ppm phosphine at the bale/case centre

SMILES: P [phosphine]
- Minimum Exposure Time to achieve 100% control [1, 3]: 12 days
- Minimum Exposure Time to achieve 100% control ([1]; tobacco temperature 20-25 °C (68-77 °F), 300 ppm phosphine at the bale/case centre): 12 days
- Minimum Exposure Time to achieve 100% control ([1]; tobacco temperature 20-25 °C (68-77 °F), 700 ppm phosphine at the bale/case centre): 10 days
- Minimum Exposure Time to achieve 100% control ([1]; tobacco temperature >25 °C (>77 °F), 300 ppm phosphine at the bale/case centre): 12 days
- Minimum Exposure Time to achieve 100% control ([1]; tobacco temperature >25 °C (>77 °F), 600 ppm phosphine at the bale/case centre): 6 days
- Minimum Exposure Time to achieve 100% control [2, 3]: 6 days
- Minimum Exposure Time to achieve 100% control ([2]; tobacco temperature >20 °C (>68 °F), 200 ppm phosphine at the bale/case centre): 4 days
